Data set [1] addresses T1, Placenta growth factor (Mus musculus, UniProt P49764).
T1 sequence (P49764 whole entry): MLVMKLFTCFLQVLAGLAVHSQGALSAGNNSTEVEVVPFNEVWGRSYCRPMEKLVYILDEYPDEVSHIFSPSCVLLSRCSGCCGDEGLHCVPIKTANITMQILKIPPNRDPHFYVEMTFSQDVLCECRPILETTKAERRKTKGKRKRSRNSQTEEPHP
In words: Inhibition of mouse PlGF-VEGFR-1 interaction by ELISA. On the technique in general: ELISA stands for enzyme-linked immunosorbent assay.

The target of data set [2] is T2, Placenta growth factor (Homo sapiens, UniProt P49763).
T2 sequence (P49763 whole entry): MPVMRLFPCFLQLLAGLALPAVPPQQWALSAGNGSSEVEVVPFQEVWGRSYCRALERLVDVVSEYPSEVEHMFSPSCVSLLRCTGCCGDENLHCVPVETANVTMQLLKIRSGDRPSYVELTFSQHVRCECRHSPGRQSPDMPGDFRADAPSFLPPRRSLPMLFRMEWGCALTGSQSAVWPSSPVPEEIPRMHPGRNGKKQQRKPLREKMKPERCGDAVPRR
In words: Binding affinity to human PlGF-1. Particulars: read-out: Kd.

Data set [3] can be described thus: Stability in Swiss Webster mouse serum assessed as functional compound remaining after 6 hrs. The data set is classed as ADME, cell-free. The following applies: read-out: Stability.
Data set [4] concerns the target T2, Placenta growth factor. Put plainly: Inhibition of human PlGF-1-VEGFR-1 interaction by ELISA.

Bridge positions count the residues as written; N and C are the ends. Peptide text beside a SMILES is read from it. * marks the point of attachment. X1 = O=C(COCC(=O)*)Nc1ccc(CCC(=O)N2CCC2=O)cc1 Bounds are passed on as bounds.

This note sets out measurements from ChEMBL document CHEMBL1687887, “Evolution of potent and stable placental-growth-factor-1-targeting CovX-bodies from phage display peptide discovery” (J Med Chem, 2011).

As a reminder, the IC50 is the midpoint of a concentration-inhibition curve. A low value points to higher potency. The Kd is a measure of binding affinity in units of concentration. For `CSCC[C@H](NC(=O)[C@@H](NC(=O)[C@H](CCCCNC(C)=O)NC(=O)[C@@H]1CSSC[C@H](NC(=O)[C@@H](NC(=O)[C@H](CC(=O)O)NC(=O)[C@H](Cc2ccccc2)NC(C)=O)C(C)C)C(=O)N[C@@H](CC(N)=O)C(=O)N[C@@H](Cc2c[nH]c3ccccc23)C(=O)N[C@@H](C(C)C)C(=O)N[C@@H]([C@@H](C)O)C(=O)N[C@@H](CC(C)C)C(=O)N[C@@H](CCCCNC(=O)COCC(=O)Nc2ccc(CCC(=O)N3CCC3=O)cc2)C(=O)N[C@@H](Cc2cnc[nH]2)C(=O)N1)C(C)C)C(N)=O` (Ac-FDVCNWVTLK(X1)HCK(Ac)VM-NH2; disulfide 4-12), the IC50 in data set [1] was over 1000 nM. Also, the Kd in data set [2] is over 1000 nM. With `CSCC[C@H](NC(=O)[C@@H](NC(=O)[C@H](CCCCNC(C)=O)NC(=O)[C@@H]1CSSC[C@H](NC(=O)[C@@H](NC(=O)[C@H](CC(=O)O)NC(=O)[C@H](Cc2ccccc2)NC(C)=O)C(C)C)C(=O)N[C@@H](CC(N)=O)C(=O)N[C@@H](Cc2c[nH]c3ccccc23)C(=O)N[C@@H](C(C)C)C(=O)N[C@@H]([C@@H](C)O)C(=O)N[C@@H](CC(C)C)C(=O)N2CCC[C@H]2C(=O)N[C@@H](CCCCNC(=O)COCC(=O)Nc2ccc(CCC(=O)N3CCC3=O)cc2)C(=O)N1)C(C)C)C(N)=O` (Ac-FDVCNWVTLPK(X1)CK(Ac)VM-NH2; disulfide 4-12), the IC50 in data set [1] was over 1000 nM. Also, the Kd in data set [2] is over 1000 nM.

In data set [1], `CSCC[C@H](NC(=O)[C@@H](NC(=O)[C@H](CCCCNC(C)=O)NC(=O)[C@@H]1CSSC[C@H](NC(=O)[C@@H](NC(=O)[C@H](CC(=O)O)NC(=O)[C@H](Cc2ccccc2)NC(C)=O)C(C)C)C(=O)N[C@@H](CCCCNC(=O)COCC(=O)Nc2ccc(CCC(=O)N3CCC3=O)cc2)C(=O)N[C@@H](Cc2c[nH]c3ccccc23)C(=O)N[C@@H](C(C)C)C(=O)N[C@@H]([C@@H](C)O)C(=O)N[C@@H](CC(C)C)C(=O)N2CCC[C@H]2C(=O)N[C@@H](Cc2cnc[nH]2)C(=O)N1)C(C)C)C(N)=O` (Ac-FDVCK(X1)WVTLPHCK(Ac)VM-NH2; disulfide 4-12) showed an IC50 of 624 nM. In data set [2], the Kd worked out at 6 nM. With `CSCC[C@H](NC(=O)[C@@H](NC(=O)[C@H](CCCCNC(=O)COCC(=O)Nc1ccc(CCC(=O)N2CCC2=O)cc1)NC(=O)[C@@H]1CSSC[C@H](NC(=O)[C@@H](NC(=O)[C@H](CC(=O)O)NC(=O)[C@H](Cc2ccccc2)NC(C)=O)C(C)C)C(=O)N[C@@H](CC(N)=O)C(=O)N[C@@H](Cc2c[nH]c3ccccc23)C(=O)N[C@@H](C(C)C)C(=O)N[C@@H]([C@@H](C)O)C(=O)N[C@@H](CC(C)C)C(=O)N2CCC[C@H]2C(=O)N[C@@H](Cc2cnc[nH]2)C(=O)N1)C(C)C)C(N)=O` (Ac-FDVCNWVTLPHCK(X1)VM-NH2; disulfide 4-12), the IC50 in data set [1] came out at 54 nM. Further, in data set [2], the Kd turned out to be 4 nM. Further, in data set [3], the remaining at 6 h amounted to 11%.

`CSCC[C@H](NC(=O)[C@@H](NC(=O)[C@H](CCCCN)NC(=O)[C@@H]1CSSC[C@H](NC(=O)[C@@H](NC(=O)[C@H](CC(=O)O)NC(=O)[C@H](Cc2ccccc2)NC(C)=O)C(C)C)C(=O)N[C@@H](CCCCN)C(=O)N[C@@H](Cc2c[nH]c3ccccc23)C(=O)N[C@@H](C(C)C)C(=O)N[C@@H]([C@@H](C)O)C(=O)N[C@@H](CC(C)C)C(=O)N2CCC[C@H]2C(=O)N[C@@H](Cc2cnc[nH]2)C(=O)N1)C(C)C)C(N)=O` (Ac-FDVCKWVTLPHCKVM-NH2; disulfide 4-12): the Kd in data set [2] is 1000 nM. For the same molecule, half-maximal inhibition in data set [4] (IC50) was put at 1000 nM. In data set [1], `CSCC[C@H](NC(=O)[C@@H](NC(=O)[C@H](CCCCNC(C)=O)NC(=O)[C@@H]1CSSC[C@H](NC(=O)[C@@H](NC(=O)[C@H](CC(=O)O)NC(=O)[C@H](Cc2ccccc2)NC(C)=O)C(C)C)C(=O)N[C@@H](CC(N)=O)C(=O)N[C@@H](Cc2c[nH]c3ccccc23)C(=O)N[C@@H](C(C)C)C(=O)N[C@@H]([C@@H](C)O)C(=O)N[C@@H](CCCCNC(=O)COCC(=O)Nc2ccc(CCC(=O)N3CCC3=O)cc2)C(=O)N2CCC[C@H]2C(=O)N[C@@H](Cc2cnc[nH]2)C(=O)N1)C(C)C)C(N)=O` (Ac-FDVCNWVTK(X1)PHCK(Ac)VM-NH2; disulfide 4-12) registered an IC50 of over 1000 nM. Also, in data set [2], the Kd is over 1000 nM. `CSCC[C@H](NC(=O)[C@@H](NC(=O)[C@H](CCCCNC(C)=O)NC(=O)[C@@H]1CSSC[C@H](NC(=O)[C@@H](NC(=O)[C@H](CC(=O)O)NC(=O)[C@H](Cc2ccccc2)NC(C)=O)C(C)C)C(=O)N[C@@H](CC(N)=O)C(=O)N[C@@H](CCCCNC(=O)COCC(=O)Nc2ccc(CCC(=O)N3CCC3=O)cc2)C(=O)N[C@@H](C(C)C)C(=O)N[C@@H]([C@@H](C)O)C(=O)N[C@@H](CC(C)C)C(=O)N2CCC[C@H]2C(=O)N[C@@H](Cc2cnc[nH]2)C(=O)N1)C(C)C)C(N)=O` (Ac-FDVCNK(X1)VTLPHCK(Ac)VM-NH2; disulfide 4-12) came in with an IC50 in data set [1] of over 1000 nM. The Kd in data set [2] is over 1000 nM. For the molecule `CC[C@H](C)[C@H](NC(=O)[C@H](CC(=O)O)NC(=O)[C@H](Cc1ccc(O)cc1)NC(C)=O)C(=O)N[C@H]1CSSC[C@@H](C(=O)N[C@@H](CCCN=C(N)N)C(=O)N[C@@H](C)C(=O)N[C@H](C(N)=O)C(C)C)NC(=O)[C@H](Cc2cnc[nH]2)NC(=O)[C@@H]2CCCN2C(=O)[C@H](CC(C)C)NC(=O)[C@H](CCCNC(=N)N)NC(=O)[C@H]([C@@H](C)CC)NC(=O)[C@H](Cc2ccc(O)cc2)NC(=O)[C@H](CCCCN)NC1=O` (Ac-YDICKYIRLPHCRAV-NH2; disulfide 4-12), the IC50 in data set [4] was found to be 9000 nM. For `CSCC[C@H](NC(=O)[C@@H](NC(=O)[C@H](CCCCN)NC(=O)[C@@H]1CSSC[C@H](NC(=O)[C@@H](NC(=O)[C@H](CC(=O)O)NC(=O)[C@H](Cc2ccccc2)NC(=O)COCC(=O)Nc2ccc(CCC(=O)N3CCC3=O)cc2)C(C)C)C(=O)N[C@@H](CCCCN)C(=O)N[C@@H](Cc2c[nH]c3ccccc23)C(=O)N[C@@H](C(C)C)C(=O)N[C@@H]([C@@H](C)O)C(=O)N[C@@H](CC(C)C)C(=O)N2CCC[C@H]2C(=O)N[C@@H](Cc2cnc[nH]2)C(=O)N1)C(C)C)C(N)=O` (X1-FDVCKWVTLPHCKVM-NH2; disulfide 4-12), in data set [2], the Kd was found to be 200 nM. Also, half-maximal inhibition in data set [4] (IC50) required 1000 nM. `CSCC[C@H](NC(=O)[C@@H](NC(=O)[C@H](CCCNC(=N)N)NC(=O)[C@@H]1CSSC[C@H](NC(=O)[C@@H](NC(=O)[C@H](CC(=O)O)NC(=O)[C@H](Cc2ccccc2)NC(C)=O)C(C)C)C(=O)N[C@@H](CCCCN)C(=O)N[C@@H](Cc2c[nH]c3ccccc23)C(=O)N[C@@H](C(C)C)C(=O)N[C@@H]([C@@H](C)O)C(=O)N[C@@H](CC(C)C)C(=O)N2CCC[C@H]2C(=O)N[C@@H](Cc2cnc[nH]2)C(=O)N1)C(C)C)C(N)=O` (Ac-FDVCKWVTLPHCRVM-NH2; disulfide 4-12) gave an IC50 in data set [4] of 5000 nM. In data set [1], `CC[C@H](C)[C@@H]1NC(=O)[C@H](Cc2ccc(O)cc2)NC(=O)[C@H](Cc2cnc[nH]2)NC(=O)[C@@H](NC(=O)[C@@H](NC(=O)[C@H](CCC(=O)O)NC(=O)[C@H](Cc2ccccc2)NC(C)=O)C(C)C)CSSC[C@@H](C(=O)N[C@@H](C(=O)N[C@H](CCCN=C(N)N)C(=O)N[C@H](Cc2ccc(O)cc2)C(N)=O)[C@@H](C)O)NC(=O)[C@H](Cc2cnc[nH]2)NC(=O)[C@@H]2CCCN2C(=O)[C@H](CC(C)C)NC(=O)[C@H](CCCCNC(=O)COCC(=O)Nc2ccc(CCC(=O)N3CCC3=O)cc2)NC1=O` displayed an IC50 of 0.2 nM. Further, the remaining at 6 h in data set [3] worked out at 23%. `CSCC[C@H](NC(=O)[C@@H](NC(=O)[C@H](CCCCNC(C)=O)NC(=O)[C@@H]1CSSC[C@H](NC(=O)[C@@H](NC(=O)[C@H](CC(=O)O)NC(=O)[C@H](Cc2ccccc2)NC(C)=O)C(C)C)C(=O)N[C@@H](CC(N)=O)C(=O)N[C@@H](Cc2c[nH]c3ccccc23)C(=O)N[C@@H](CCCCNC(=O)COCC(=O)Nc2ccc(CCC(=O)N3CCC3=O)cc2)C(=O)N[C@@H]([C@@H](C)O)C(=O)N[C@@H](CC(C)C)C(=O)N2CCC[C@H]2C(=O)N[C@@H](Cc2cnc[nH]2)C(=O)N1)C(C)C)C(N)=O` (Ac-FDVCNWK(X1)TLPHCK(Ac)VM-NH2; disulfide 4-12): the IC50 in data set [1] is over 1000 nM. Also, in data set [2], the Kd is over 1000 nM.

Regarding `CSCC[C@H](NC(=O)[C@@H](NC(=O)[C@H](CCCCNC(C)=O)NC(=O)[C@@H]1CSSC[C@H](NC(=O)[C@H](CCCCNC(=O)COCC(=O)Nc2ccc(CCC(=O)N3CCC3=O)cc2)NC(=O)[C@H](CC(=O)O)NC(=O)[C@H](Cc2ccccc2)NC(C)=O)C(=O)N[C@@H](CC(N)=O)C(=O)N[C@@H](Cc2c[nH]c3ccccc23)C(=O)N[C@@H](C(C)C)C(=O)N[C@@H]([C@@H](C)O)C(=O)N[C@@H](CC(C)C)C(=O)N2CCC[C@H]2C(=O)N[C@@H](Cc2cnc[nH]2)C(=O)N1)C(C)C)C(N)=O` (Ac-FDK(X1)CNWVTLPHCK(Ac)VM-NH2; disulfide 4-12), the IC50 in data set [1] was over 1000 nM. Also, in data set [2], the Kd was over 1000 nM. `CC[C@H](C)[C@@H]1NC(=O)[C@H](Cc2ccc(O)cc2)NC(=O)[C@H](Cc2cnc[nH]2)NC(=O)[C@@H](NC(=O)[C@@H](NC(=O)[C@H](CCC(=O)O)NC(=O)[C@H](Cc2ccccc2)NC(C)=O)C(C)C)CSSC[C@@H](C(=O)N[C@H](C(=O)N[C@@H](CCCN=C(N)N)C(=O)N[C@@H](Cc2ccc(O)cc2)C(N)=O)[C@@H](C)O)NC(=O)[C@H](Cc2cnc[nH]2)NC(=O)[C@@H]2CCCN2C(=O)[C@H](CC(C)C)NC(=O)[C@H](CCCN=C(N)N)NC1=O` (Ac-FEVCHYIRLPHCTRY-NH2; disulfide 4-12) showed an IC50 in data set [1] of 400 nM. In other words, the sub-micromolar range.
